From US7795267B2, “Bicyclic piperazine compound having TGR23 antagonistic activity” (Takeda Pharmaceutical Company Limited, priority 2003, dated 2010)

Key:
[1] = test system: human colon cancer cell strain LS 174T; assay: Inhibition of DNA synthesis by cancer cells ([methyl-3H]-thymidine uptake under TGR23 ligand stimulation); format: cell-based; conditions: LS174T, LS 174T cells, 10 nM TGR23 ligand, read-out: IC50 value of the test compound in DNA synthesis
Procedure: The cells of human colon cancer cell strain LS 174T (ATCC number: CL-188) were inoculated to a 96-well plate to a concentration of 20,000 cells per well, and then incubated in an EMEM medium (Nikken Biology and Medical Research Center) containing 0.05% bovine serum albumin not containing fatty acids (Sigma Chemical Co.) for 24 hours. After the 15-minute preincubation of these cells with the test compound, the cells were incubated in the presence of 10 nM of a TGR23 ligand [a human TGR23-2 ligand (1-20) represented by SEQ ID NO: 23 in WO 03/25179 was used] for 18 hours. Next, the cells were incubated in the presence of 0.25 μCi of [methyl-^3H]-thymidine (Amersham Biosciences KK) per well for 6 hours. The [methyl-^3H]-thymidine incorporated into the cancer cell DNA was measured in the following manner. After discarding the culture supernatant, 100 μL of ice-cold 10% trichloroacetic acid per well was added to the cells having taken up [methyl-^3H]-thymidine, and the cells were maintained on ice for 15 minutes. After discarding the trichloroacetic acid solution, 300 μL of a 0.2 N sodium hydroxide solution per well was added to the immobilized cells, and then the cells were kept warm overnight at 37° C. The amount of [methyl-^3H]-thymidine in the cell lysate was measured with a liquid scintillation counter.
The rate of DNA synthesis inhibition by the test compound was defined as the relative value obtained by subtracting the amount of [methyl-^3H]-thymidine uptake determined without stimulation from the uptake amount determined in the presence of the test compound and 10 nM of the TGR23 ligand, when the value obtained by subtracting the amount of [methyl-^3H]-thymidine uptake determined without stimulation from the uptake amount determined in the presence of the stimulation by 10 nM of the TGR23 ligand was taken as 100%. The IC50 value of the test compound in DNA synthesis was defined as the concentration of the test compound required to achieve 50% of the DNA synthesis inhibition rate.

[2] = test system: human colon cancer cell strain LS 174T; assay: Cell growth inhibition (MTT method, TGR23 ligand stimulation); format: cell-based; conditions: LS174T, LS 174T cells, 10 nM TGR23 ligand, 24 hours, read-out: IC50 value of the test compound for cell growth
Procedure: The cells of human colon cancer cell strain LS 174T (ATCC number: CL-188) were inoculated in a 96-well plate to a concentration of 40,000 cells per well, and then the cells were incubated for 24 hours in an EMEM medium containing 0.05% bovine serum albumin not containing fatty acids. After a 15-minute pretreatment of these cells with the test compound, LS 174T cells were incubated for 24 hours in the presence of 10 nM of a TGR23 ligand [a human TGR23-2 ligand (1-20) represented by SEQ ID NO: 23 in WO 03/25179 was used]. Cell growth was evaluated by the MTT method. Cells were lysed by keeping them warm in an MTT solution (3-(4,5-dimethylthiazol-2-yl)-2,5-diphenyl tetrazolium bromide) at a final concentration of 0.5 mg/mL at 37° C. for 4 hours, and then in a 5% SDS solution at 37° C. for 24 hours. The absorbance of the cell lysate was measured using a 96-well plate reader. […]
The cell growth inhibitory rate of the test compound was defined as the relative value obtained by subtracting the absorbance change determined without stimulation from the absorbance change determined in the presence of the test compound and 10 nM of the TGR23 ligand, when the value obtained by subtracting the absorbance change determined without stimulation from the absorbance change determined in the presence of stimulation by 10 nM of the TGR23 ligand was taken as 100%. […]

| SMILES | IC50 [1] [nM] | IC50 [2] [nM] |
| --- | --- | --- |
| O=C(CCCN1CC=CCC1)N1CCN2C(=O)OC(c3ccccc3)(c3ccccc3)C2C1 (centres unmarked) [Example 138, 7-[4-(3,6-Dihydropyridin-1(2H)-yl)-1-oxobutyl]-hexahydro-1,1-diphenyl-3H-oxazolo[3,4-a]pyrazin-7(1H)-3-one] | ≤ 1000 |  |
| O=C(NCCN1CC=CCC1)N1CCN2C(=O)OC(c3ccccc3)(c3ccccc3)C2C1 (centres unmarked) [Example 85, N-[2-(3,6-Dihydropyridin-1(2H)-yl)ethyl]-tetrahydro-3-oxo-1,1-diphenyl-3H-oxazolo[3,4-a]pyrazine-7(1H)-carboxamide] | ≤ 1000 |  |
| O=C(NCCN1CC=CCC1)N1CCN2C(=O)OC(c3ccccc3)(c3ccccc3)C2C1 (single isomer, unassigned; (+)) [Example 201, (+)-N-[2-(3,6-Dihydropyridin-1(2H)-yl)ethyl]-tetrahydro-3-oxo-1,1-diphenyl-3H-oxazolo[3,4-a]pyrazine-7(1H)-carboxamide] | ≤ 1000 |  |
| O=C(NCc1cccc(F)c1)N1CCN2C(=O)OC(c3ccccc3)(c3ccccc3)C2C1 (centres unmarked) [Example 28, N-[(3-Fluorophenyl)methyl]-tetrahydro-3-oxo-1,1-diphenyl-3H-oxazolo[3,4-a]pyrazine-7(1H)-carboxamide] | ≤ 1000 |  |
| O=C(NCc1ccc(F)c(F)c1)N1CCN2C(=O)OC(c3ccccc3)(c3ccccc3)C2C1 (centres unmarked) [Example 97, N-[(3,4-Difluorophenyl)methyl]-tetrahydro-3-oxo-1,1-diphenyl-3H-oxazolo[3,4-a]pyrazine-7(1H)-carboxamide] | ≤ 1000 |  |
| O=C(NCc1ccsc1)N1CCN2C(=O)OC(c3ccccc3)(c3ccccc3)C2C1 (centres unmarked) [Example 96, Tetrahydro-3-oxo-1,1-diphenyl-N-[(3-thienyl)methyl]-3H-oxazolo[3,4-a]pyrazine-7(1H)-carboxamide] | ≤ 1000 |  |
| O=C(NCCN1CCCCCC1)N1CCN2C(=O)OC(c3ccccc3)(c3ccccc3)C2C1 (centres unmarked) [Example 147, N-[2-(Hexahydro-1H-azepin-1-yl)ethyl]tetrahydro-3-oxo-1,1-diphenyl-3H-oxazolo[3,4-a]pyrazine-7(1H)-carboxamide] | ≤ 1000 |  |
| O=C(NCc1ccccc1)N1CCN2C(=O)OC(c3ccccc3)(c3ccccc3)C2C1 (centres unmarked) [Example 17, Tetrahydro-3-oxo-1,1-diphenyl-N-(phenylmethyl)-3H-oxazolo[3,4-a]pyrazine-7(1H)-carboxamide] | ≤ 1000 | ≤ 1000 |
| O=C(NCc1ccc(F)cc1)N1CCN2C(=O)OC(c3ccccc3)(c3ccccc3)C2C1 (centres unmarked) [Example 25, N-[(4-Fluorophenyl)methyl]-tetrahydro-3-oxo-1,1-diphenyl-3H-oxazolo[3,4-a]pyrazine-7(1H)-carboxamide] | ≤ 1000 | ≤ 1000 |
